Read-outs that look alike come from different tables or passages of the source.

Our source for the IC50 and GI50 values is patent publication US20260365670A1, “EGFR INHIBITORS AND USES THEREOF” (DIZAL (JIANGSU) PHARMACEUTICAL CO., LTD., priority 2022, published 2026).

The target of test [1] is T1, EGFR wild type (Homo sapiens, UniProt P00533).
T1 construct: purchased Carna Bio
The test can be described thus: Inhibition of EGFR wild type biochemical enzymatic activity (HTRF). Conditions: EGFR WT, 1 mM ATP, 1 h, room temperature, read-out: IC50 (nM) @WT. In a few lines: (§1)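 Compounds at varying concentrations were tested against each EGFR form using 1 mM ATP and 1 μM TK Substrate-biotin. Reactions ran 1 h at room temperature in Mg2+/Mn2+ buffer with CHAPS, DTT and 0.5% DMSO. Time-resolved fluorescence gave IC50 by four-parameter fit.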

In test [2] the target is T2, EGFR L858R (Homo sapiens, UniProt P00533, L858R).
T2 construct: purchased Carna Bio
The test can be described thus: Inhibition of EGFR L858R biochemical enzymatic activity (HTRF). The settings on record: 1 mM ATP, 1 h, room temperature, read-out: IC50 (nM) @L858R. A digest of the protocol: as §1

The target in test [3] is T3, EGFR L858R/T790M (Homo sapiens, UniProt P00533, L858R/T790M).
T3 construct: purchased Carna Bio
Put plainly: Inhibition of EGFR L858R/T790M biochemical enzymatic activity (HTRF). The settings on record: EGFR L858R-T790M, 1 mM ATP, 1 h, room temperature, read-out: IC50 (nM) @L858R-T790M. A digest of the protocol: as §1

In test [4] the target is T4, EGFR Exon19Del (Homo sapiens, UniProt P00533, DEL746-750).
T4 construct: purchased Carna Bio
Put plainly: Inhibition of EGFR Exon19Del biochemical enzymatic activity (HTRF). Conditions: EGFR Del19, 1 mM ATP, 1 h, room temperature, read-out: IC50 @Del19. In a few lines:
as §1

For test [5], the target named is T5, EGFR Exon19Del/T790M (Homo sapiens, UniProt P00533, DEL746-750/T790M).
T5 construct: purchased Carna Bio
The test can be described thus: Inhibition of EGFR Exon19Del/T790M biochemical enzymatic activity (HTRF). Conditions: EGFR Del19-T790M, 1 mM ATP, 1 h, room temperature, read-out: IC50 (nM) @Del19-T790M. In a few lines:
as §1

Test [6] concerns the target T6, EGFR[T790M/C797S/L858R] (Homo sapiens, UniProt P00533, C797S/L858R/T790M).
T6 construct: purchased Carna Bio
The test can be described thus: Inhibition of EGFR[T790M/C797S/L858R] biochemical enzymatic activity (HTRF). The settings on record: EGFR T790M-C797S-L858R, 1 mM ATP, 1 h, room temperature, read-out: IC50 (nM) @T790M- C797S - L858R. In a few lines: as §1

Test [7] concerns the target T7, EGFR[T790M/C797S/d746-750] (Homo sapiens, UniProt P00533, C797S/DEL746-750/T790M).
T7 construct: purchased Carna Bio
Put plainly: Inhibition of EGFR[T790M/C797S/d746-750] biochemical enzymatic activity (HTRF). Conditions: EGFR T790M-C797S-Del19, 1 mM ATP, 1 h, room temperature, read-out: IC50 (nM) @T790M - C797S - Del19. A digest of the protocol:
as §1

Test [8] has as its target T8, EGFR (d746-750 C797S) (Homo sapiens, UniProt P00533, C797S/DEL746-750).
T8 construct: purchased signalchem
The test can be described thus: Inhibition of EGFR (d746-750 C797S) biochemical enzymatic activity (HTRF). The settings on record: EGFR Del19-C797S, 1 mM ATP, 1 h, room temperature, read-out: IC50 (nM) @Del19-C797S. A digest of the protocol: as §1

Test [9] has as its target T9, EGFR (C797S L858R) (Homo sapiens, UniProt P00533, C797S/L858R).
T9 construct: purchased signalchem
The test can be described thus: Inhibition of EGFR (C797S L858R) biochemical enzymatic activity (HTRF). Conditions: EGFR L858-C797S, 1 mM ATP, 1 h, room temperature, read-out: IC50 (nM) @L858-C797S. In a few lines: as §1

Test [10] deals with Ba/F3 cells expressing EGFR mutations. The test can be described thus: Cell proliferation assay, Ba/F3 cells expressing EGFR mutations (CellTiter-Glo, 72 hours). The settings on record: CellTiter-Glo. It counts as cell-based. In a few lines:
(§2)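 Growth over 72 h was quantified by CellTiter-Glo luminescence, normalised as (G3 − G0)/(DMSO G3 − G0), for PC-9 cells seeded at 500/well and EGFR-mutant Ba/F3 cells at 5000/well in RPMI1640. Compound concentration series added after overnight incubation; GI50 obtained from best-fit curves.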

The subject of test [11] is PC-9. Put plainly: Cell proliferation assay, PC-9 cells (CellTiter-Glo, 72 hours). It counts as cell-based. Conditions: PC9 cells, CellTiter-Glo, read-out: PC9 GI50. In a few lines: as §2
Test [12] deals with A-431. The test can be described thus: Cell proliferation GI50, A-431 cells (Table 6). It counts as cell-based.
Setting [13] is: Mus musculus, BaF3, 72 h, BaF3 cells, EGFR DEL19-C797S, read-out: DEL19-C797S/BaF3 GI50.
Where [14] appears, read: Mus musculus, BaF3, 72 h, BaF3 cells, EGFR DEL19-T790-C797S, read-out: DEL19-T790-C797S/BaF3 GI50.
The mark [15] stands for this setting: Mus musculus, BaF3, 72 h, BaF3 cells, EGFR L858R, read-out: L858R/BaF3 GI50.
Setting [16] is: Mus musculus, BaF3, 72 h, BaF3 cells, EGFR L858R-C797S, read-out: L858R-C797S/BaF3 GI50.
[17] abbreviates: Mus musculus, BaF3, 72 h, BaF3 cells, EGFR L858R-T790-C797S, read-out: L858R-T790-C797S/BaF3 GI50.
[18] abbreviates: Mus musculus, BaF3, 72 h, BaF3 cells, EGFR L858R-T790M, read-out: L858R-T790M/BaF3 GI50.
Where [19] appears, read: Mus musculus, BaF3, 72 h, EGFR DEL19-T790M, read-out: DEL19-T790M GI50.
Where [20] appears, read: Homo sapiens, A-431, A-431 cells.

T6 sequence (P00533 25-1210 T790M/C797S/L858R): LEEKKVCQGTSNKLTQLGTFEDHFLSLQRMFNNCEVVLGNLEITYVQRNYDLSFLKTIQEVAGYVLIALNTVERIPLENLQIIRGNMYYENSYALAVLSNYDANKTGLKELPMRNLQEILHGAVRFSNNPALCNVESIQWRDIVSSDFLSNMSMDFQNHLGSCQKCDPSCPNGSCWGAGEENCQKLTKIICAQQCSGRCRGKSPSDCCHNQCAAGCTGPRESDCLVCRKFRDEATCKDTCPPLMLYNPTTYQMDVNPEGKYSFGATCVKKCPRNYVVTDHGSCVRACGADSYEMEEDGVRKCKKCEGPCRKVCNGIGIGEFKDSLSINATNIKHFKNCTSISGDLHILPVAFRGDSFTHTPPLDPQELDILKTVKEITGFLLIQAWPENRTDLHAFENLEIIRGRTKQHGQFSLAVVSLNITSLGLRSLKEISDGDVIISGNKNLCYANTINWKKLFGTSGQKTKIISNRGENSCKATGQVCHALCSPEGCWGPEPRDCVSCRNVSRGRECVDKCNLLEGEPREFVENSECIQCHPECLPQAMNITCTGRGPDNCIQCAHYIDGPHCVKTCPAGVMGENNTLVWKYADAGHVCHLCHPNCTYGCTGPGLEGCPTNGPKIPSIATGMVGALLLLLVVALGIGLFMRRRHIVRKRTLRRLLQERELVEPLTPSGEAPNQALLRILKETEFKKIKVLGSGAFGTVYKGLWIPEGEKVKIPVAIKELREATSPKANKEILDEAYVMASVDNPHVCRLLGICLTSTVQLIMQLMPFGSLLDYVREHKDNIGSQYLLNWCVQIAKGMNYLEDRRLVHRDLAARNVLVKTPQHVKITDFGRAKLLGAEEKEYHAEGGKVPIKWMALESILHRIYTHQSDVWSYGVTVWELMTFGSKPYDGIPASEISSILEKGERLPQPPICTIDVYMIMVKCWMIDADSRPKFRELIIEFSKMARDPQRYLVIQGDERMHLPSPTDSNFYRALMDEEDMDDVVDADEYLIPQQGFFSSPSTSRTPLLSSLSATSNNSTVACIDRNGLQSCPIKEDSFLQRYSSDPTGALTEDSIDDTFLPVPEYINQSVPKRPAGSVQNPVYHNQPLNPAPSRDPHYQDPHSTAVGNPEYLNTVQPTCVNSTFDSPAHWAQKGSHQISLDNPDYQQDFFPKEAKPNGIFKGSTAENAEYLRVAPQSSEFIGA
T5 sequence (P00533 with tags, fused parts or gaps DEL746-750/T790M limits assumed): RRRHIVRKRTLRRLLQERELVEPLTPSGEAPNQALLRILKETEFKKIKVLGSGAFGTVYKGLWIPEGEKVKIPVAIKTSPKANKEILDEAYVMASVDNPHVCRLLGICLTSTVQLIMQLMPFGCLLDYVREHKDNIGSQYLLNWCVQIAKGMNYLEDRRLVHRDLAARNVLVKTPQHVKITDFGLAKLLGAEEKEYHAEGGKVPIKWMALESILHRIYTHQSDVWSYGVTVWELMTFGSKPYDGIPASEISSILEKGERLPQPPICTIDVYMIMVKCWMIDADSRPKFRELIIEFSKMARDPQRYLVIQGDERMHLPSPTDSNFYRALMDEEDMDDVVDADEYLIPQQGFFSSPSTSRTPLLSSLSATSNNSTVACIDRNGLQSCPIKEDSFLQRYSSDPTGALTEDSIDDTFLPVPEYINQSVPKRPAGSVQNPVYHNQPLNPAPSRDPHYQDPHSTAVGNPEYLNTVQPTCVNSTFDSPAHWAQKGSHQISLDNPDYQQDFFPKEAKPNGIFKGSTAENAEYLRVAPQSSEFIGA
T1 sequence (P00533 25-1210): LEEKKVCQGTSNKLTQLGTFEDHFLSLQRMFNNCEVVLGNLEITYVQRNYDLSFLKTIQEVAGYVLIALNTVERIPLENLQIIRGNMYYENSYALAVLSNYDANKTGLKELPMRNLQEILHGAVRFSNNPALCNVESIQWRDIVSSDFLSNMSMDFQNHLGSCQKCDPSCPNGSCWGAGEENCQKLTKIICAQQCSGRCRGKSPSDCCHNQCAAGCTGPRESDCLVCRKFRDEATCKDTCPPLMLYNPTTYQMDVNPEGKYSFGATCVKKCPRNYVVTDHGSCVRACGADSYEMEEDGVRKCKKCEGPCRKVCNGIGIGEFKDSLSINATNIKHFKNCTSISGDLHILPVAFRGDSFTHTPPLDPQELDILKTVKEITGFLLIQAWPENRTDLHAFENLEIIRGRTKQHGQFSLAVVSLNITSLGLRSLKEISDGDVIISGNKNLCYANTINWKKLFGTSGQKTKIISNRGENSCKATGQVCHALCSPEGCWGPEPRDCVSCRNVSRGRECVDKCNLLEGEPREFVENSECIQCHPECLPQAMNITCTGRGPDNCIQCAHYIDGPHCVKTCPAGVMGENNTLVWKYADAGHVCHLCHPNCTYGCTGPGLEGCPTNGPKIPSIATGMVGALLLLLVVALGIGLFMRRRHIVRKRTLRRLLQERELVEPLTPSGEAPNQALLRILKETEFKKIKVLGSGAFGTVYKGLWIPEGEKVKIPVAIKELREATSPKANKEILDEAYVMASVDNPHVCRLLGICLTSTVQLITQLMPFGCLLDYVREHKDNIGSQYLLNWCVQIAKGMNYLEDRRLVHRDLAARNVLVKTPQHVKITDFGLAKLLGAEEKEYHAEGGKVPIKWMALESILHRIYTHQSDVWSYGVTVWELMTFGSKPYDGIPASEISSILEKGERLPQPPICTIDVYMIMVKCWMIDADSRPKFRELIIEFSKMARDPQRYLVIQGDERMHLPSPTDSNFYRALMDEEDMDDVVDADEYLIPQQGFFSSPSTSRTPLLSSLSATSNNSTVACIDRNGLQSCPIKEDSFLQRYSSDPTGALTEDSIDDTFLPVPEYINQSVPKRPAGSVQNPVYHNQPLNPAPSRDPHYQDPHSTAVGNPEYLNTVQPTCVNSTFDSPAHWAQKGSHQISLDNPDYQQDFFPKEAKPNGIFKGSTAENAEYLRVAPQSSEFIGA
T2 sequence (P00533 25-1210 L858R): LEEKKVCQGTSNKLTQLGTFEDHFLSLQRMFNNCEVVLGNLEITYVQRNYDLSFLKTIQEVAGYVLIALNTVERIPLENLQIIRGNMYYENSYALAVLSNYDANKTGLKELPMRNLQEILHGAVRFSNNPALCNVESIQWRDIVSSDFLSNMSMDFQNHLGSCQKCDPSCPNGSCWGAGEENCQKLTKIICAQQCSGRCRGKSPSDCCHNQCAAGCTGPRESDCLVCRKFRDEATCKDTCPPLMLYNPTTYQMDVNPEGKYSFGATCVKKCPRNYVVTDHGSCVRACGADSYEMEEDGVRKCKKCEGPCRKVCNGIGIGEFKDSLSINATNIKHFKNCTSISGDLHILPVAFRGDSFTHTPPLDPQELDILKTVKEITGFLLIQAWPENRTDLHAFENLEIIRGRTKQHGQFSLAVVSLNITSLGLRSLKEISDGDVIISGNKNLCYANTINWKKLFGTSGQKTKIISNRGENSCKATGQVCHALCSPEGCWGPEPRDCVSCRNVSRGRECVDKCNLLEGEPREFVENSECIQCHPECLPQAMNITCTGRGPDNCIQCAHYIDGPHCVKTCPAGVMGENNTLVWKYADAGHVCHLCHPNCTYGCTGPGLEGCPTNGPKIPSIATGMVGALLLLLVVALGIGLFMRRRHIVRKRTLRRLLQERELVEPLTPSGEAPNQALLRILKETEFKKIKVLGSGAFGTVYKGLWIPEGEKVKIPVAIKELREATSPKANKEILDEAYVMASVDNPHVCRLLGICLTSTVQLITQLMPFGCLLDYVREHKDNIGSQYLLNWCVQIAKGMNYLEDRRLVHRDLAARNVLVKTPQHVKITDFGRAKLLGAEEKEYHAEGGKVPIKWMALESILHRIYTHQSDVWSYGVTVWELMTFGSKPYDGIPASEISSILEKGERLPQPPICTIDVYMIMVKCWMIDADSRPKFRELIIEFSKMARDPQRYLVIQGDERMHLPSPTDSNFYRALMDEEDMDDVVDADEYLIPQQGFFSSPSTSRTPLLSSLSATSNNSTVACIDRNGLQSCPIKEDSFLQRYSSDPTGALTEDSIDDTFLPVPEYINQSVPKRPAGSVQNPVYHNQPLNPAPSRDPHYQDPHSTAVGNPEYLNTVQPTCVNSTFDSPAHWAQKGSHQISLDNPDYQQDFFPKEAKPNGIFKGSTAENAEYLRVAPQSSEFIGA
T4 sequence (P00533 with tags, fused parts or gaps DEL746-750 limits assumed): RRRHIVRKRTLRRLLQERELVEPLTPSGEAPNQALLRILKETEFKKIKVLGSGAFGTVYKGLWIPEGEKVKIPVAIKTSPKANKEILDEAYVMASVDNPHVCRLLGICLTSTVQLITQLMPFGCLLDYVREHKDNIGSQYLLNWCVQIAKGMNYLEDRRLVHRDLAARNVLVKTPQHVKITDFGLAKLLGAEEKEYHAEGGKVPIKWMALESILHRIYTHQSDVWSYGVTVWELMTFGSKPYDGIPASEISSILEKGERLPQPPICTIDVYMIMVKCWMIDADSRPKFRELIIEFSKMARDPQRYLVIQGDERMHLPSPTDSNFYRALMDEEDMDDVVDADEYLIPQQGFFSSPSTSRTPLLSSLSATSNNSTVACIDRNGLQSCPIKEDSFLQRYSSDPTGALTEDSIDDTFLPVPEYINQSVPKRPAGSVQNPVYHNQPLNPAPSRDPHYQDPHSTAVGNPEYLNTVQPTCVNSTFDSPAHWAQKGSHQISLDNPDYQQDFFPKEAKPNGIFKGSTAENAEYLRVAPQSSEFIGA

For the molecule `CN(C)C1CCN(c2ccc3nc4n(c3c2)C23CCC(CN(CCOc5c(cnn5C)-c5cc(cn(C)c5=O)C(=O)N4)C2)C3)CC1(F)F` (single isomer, unassigned) [Example A97B], the IC50 in test [1] stood at 224 nM; in test [2], 14 nM; in [3] it was 5.7 nM; in test [4], 4.4 nM; in test [5] it was 4.9 nM; in test [6] it was 4.7 nM. Besides, the IC50 in test [7] was 4.8 nM; in test [8], 1.7 nM; in test [9], 8.4 nM. The GI50 in [10] (BaF3 cells, EGFR DEL19-C797S, read-out: DEL19-C797S/BaF3 GI50) amounted to 0.76 nM; in [10] (BaF3 cells, EGFR DEL19-T790-C797S, read-out: DEL19-T790-C797S/BaF3 GI50), 5.6 nM; in test [10] (BaF3 cells, EGFR L858R, read-out: L858R/BaF3 GI50), 2 nM; in [10] (BaF3 cells, EGFR L858R-C797S, read-out: L858R-C797S/BaF3 GI50), 3 nM; in test [10] (BaF3 cells, EGFR L858R-T790-C797S, read-out: L858R-T790-C797S/BaF3 GI50) it was 3.5 nM; in test [10] (BaF3 cells, EGFR L858R-T790M, read-out: L858R-T790M/BaF3 GI50), 13 nM. Moreover, the GI50 came to 6.4 nM in test [10] (EGFR DEL19-T790M, read-out: DEL19-T790M GI50); 24 nM in [11]; 1450 nM in [12] (A-431 cells).

Turning to `C[C@@H]1CCCOc2c(cnn2C)-c2cc(cn(C)c2=O)C(=O)Nc2nc3ccc(N4CC5(CCN(C)C5)C4)cc3n2C1` [Example A42], the IC50 in test [1] was 42 nM; in [2] it was 8.9 nM; in [3], 6.8 nM; in test [4] it was 3 nM; in test [5], 5.4 nM; in test [6] it was 5.1 nM. The IC50 in [7] was found to be 4.5 nM; in test [8], 2.5 nM; in [9], 6.7 nM. In addition, the GI50 in test [10] (setting [13]) was 0.47 nM; in test [10] (setting [14]) it was 1.8 nM; in test [10] (setting [15]), 0.75 nM; in test [10] (setting [16]) it was 2.1 nM; in test [10] (setting [17]) it was 1.6 nM; in test [10] (setting [18]) it was 8.7 nM. In addition, the GI50 stood at 2.2 nM in test [10] (setting [19]); 2.5 nM in [11] (Homo sapiens, PC-9, 72 h); 279 nM in test [12] (setting [20]).

For the molecule `Cn1ncc2c1OCCN1CC3(CCCC1C3)n1c(nc3ccc(N4CCOCC4)cc31)NC(=O)c1cc-2c(=O)n(C)c1` (stereo not drawn) [Example A9, 15,21-Dimethyl-5-(morpholin-4-yl)-23-oxa-2,9,11,15,20,21,26-heptaazaheptacyclo[24.4.1.1^{1,27}.1^{13,17}.0^{2,10}.0^{3,8}.0^{18,22}]tritriaconta-3,5,7,9,13,17(33),18(22),19-octaene-12,16-dione], the IC50 in test [1] was > 5000 nM; in test [2], > 5000 nM; in [3] it was > 5000 nM; in [4], 264 nM; in test [5], 198 nM; in test [6], > 5000 nM. Besides, the IC50 was 316 nM in test [7], 536 nM in [8] and > 5000 nM in test [9]. For the same molecule, the GI50 in test [10] (setting [13]) amounted to 55 nM; in test [10] (setting [14]), 405 nM; in test [10] (setting [15]) it was 608 nM; in test [10] (setting [16]), 515 nM; in test [10] (setting [17]), 607 nM; in test [10] (setting [18]), 264 nM. The GI50 in [10] (setting [19]) turned out to be 364 nM; in test [11] (Homo sapiens, PC-9, 72 h), 211 nM; in [12] (setting [20]), 3020 nM.
